# Laboratory results published in patent US9302999B2, “Substituted triazoles as herbicides” (E. I. DU PONT DE NEMOURS AND COMPANY, priority 2012, dated 2016).
# Experiments:
# [1] = tested on: panicum, fall (fall panicum, Panicum dichotomiflorum); assay: Test E pre-/postemergence: panicum, fall; type: in vivo; details: scale 0 to 100
# Source text: (§1) Seeds of plant species selected from corn (Zea mays), soybean (Glycine max), velvetleaf (Abutilon theophrasti), lambsquarters (Chenopodium album), poinsettia, wild (wild poinsettia, Euphorbia heterophylla), pigweed, palmer (palmer pigweed, Amaranthus palmeri), waterhemp (common waterhemp, Amaranthus rudis), smartweed (ladysthumb smartweed, Polygonum persicaria), surinam grass (Brachiaria decumbens), crabgrass, large (large crabgrass, Digitaria sanguinalis), crabgrass, Brazil (Brazilian crabgrass, Digitaria horizontalis), panicum, fall (fall panicum, Panicum dichotomiflorum), foxtail, giant (giant foxtail, Setaria faberii), foxtail, green (green foxtail, Setaria viridis), goosegrass (Eleusine indica), johnsongrass (Sorghum halepense), ragweed (common ragweed, Ambrosia elation), barnyardgrass (Echinochloa crus-galli), sandbur (southern sandbur, Cenchrus echinatus), arrowleaf sida (Sida rhombifolia), ryegrass, Italian (Italian ryegrass, Lolium multiflorum), dayflower, (VA) (Virginia dayflower, Commelina virginica), field bindweed (Convolvulus arvensis), cocklebur (common cocklebur, Xanthium strumarium), morningglory (Ipomoea coccinea), nightshade (eastern black nightshade, Solanum ptycanthum), kochia (Kochia scoparia), nutsedge, yellow (yellow nutsedge, Cyperus esculentus) and beggarticks (hairy beggarticks, Bidens pilosa) were planted into a silt loam soil and treated preemergence with test chemicals formulated in a non-phytotoxic solvent mixture which included a surfactant. At the same time, plants selected from these crop and weed species were planted in pots containing a growing medium comprising spaghnum peat moss, vermiculite, wetting agent and starter nutrients and treated with postemergence applications of some of the test chemicals formulated in the same manner. Plants ranged in height from 2 to 18 cm for postemergence treatments (1- to 4-leaf stage).
# (§2) Treated plants and controls were maintained in a greenhouse for 14 to 21 days, after which time all species were compared to controls and visually evaluated. Plant response ratings, summarized in Table E, are based on a scale of 0 to 100 where 0 is no effect and 100 is complete control. A dash (-) response means no test result.
# [2] = tested on: cocklebur (common cocklebur, Xanthium strumarium); assay: Test E pre-/postemergence: cocklebur; type: in vivo; details: Preemergence, scale 0 to 100
# Source text: as §1, §2
# [3] = tested on: goosegrass (Eleusine indica); assay: Test E pre-/postemergence: goosegrass; type: in vivo; details: Preemergence, scale 0 to 100
# Source text: as §1, §2
# [4] = tested on: foxtail, green (green foxtail, Setaria viridis); assay: Test E pre-/postemergence: foxtail, green; type: in vivo; details: Preemergence, scale 0 to 100
# Source text: as §1, §2
# [5] = tested on: nutsedge, yellow (yellow nutsedge, Cyperus esculentus); assay: Test E pre-/postemergence: nutsedge, yellow; type: in vivo; details: Preemergence, scale 0 to 100
# Source text: as §1, §2
# Oilseed Rape [6] = assay: Test C preemergence: oilseed rape; type: in vivo, Brassica napus; details: 125 g ai/ha, scale 0 to 100, 0 no effect, 100 complete control
# Oilseed Rape [7] = assay: Test C pre-/postemergence: oilseed rape; type: in vivo
# Source text: Seeds of plant species selected from blackgrass (Alopecurus myosuroides), bromegrass, downy (downy bromegrass, Bromus tectorum), foxtail, green (green foxtail, Setaria viridis), ryegrass, Italian (Italian ryegrass, Lolium multiflorum), winter wheat (Triticum aestivum), wild oat (Avena fatua), galium (catchweed bedstraw, Galium aparine), bermudagrass (Cynodon dactylon), surinam grass (Brachiaria decumbens), cocklebur (common cocklebur, Xanthium strumarium), corn (Zea mays), large crabgrass (Digitaria sanguinalis), woolly cupgrass (Eriochloa villosa), foxtail, giant (giant foxtail, Setaria faberii), goosegrass (Eleusine indica), johnsongrass (Sorghum halepense), kochia (Kochia scoparia), lambsquarters (Chenopodium album), morningglory (Ipomoea coccinea), nightshade (eastern black nightshade, Solanum ptycanthum), nutsedge, yellow (yellow nutsedge, Cyperus esculentus), pigweed (Amaranthus retroflexus), ragweed (common ragweed, Ambrosia elation), soybean (Glycine max), common (oilseed) sunflower (Helianthus annuus), Russian thistle (Salsola kali) and velvetleaf (Abutilon theophrasti) were planted into a blend of loam soil and sand and treated preemergence with test chemicals formulated in a non-phytotoxic solvent mixture which included a surfactant.
# At the same time, plants selected from these crop and weed species and also barley (winter barley, Hordeum vulgare), canarygrass (Phalaris minor), chickweed (common chickweed, Stellaria media) windgrass (Apera spica-venti) and deadnettle (henbit deadnettle, Lamium amplexicaule) were planted in pots containing Redi-Earth® planting medium (Scotts Company, 14111 Scottslawn Road, Marysville, Ohio 43041) comprising spaghnum peat moss, vermiculite, wetting agent and starter nutrients and treated with postemergence applications of test chemicals formulated in the same manner. Plants ranged in height from 2 to 18 cm (1- to 4-leaf stage) for postemergence treatments.
# Treated plants and controls were maintained in a greenhouse for 13 to 15 days, after which time all species were compared to controls and visually evaluated. Plant response ratings, summarized in Table C, are based on a scale of 0 to 100 where 0 is no effect and 100 is complete control. A dash (-) response means no test result.
# [8] = Preemergence, 250 g ai/ha, scale 0 to 100, 0 no effect, 100 complete control
# [9] = Postemergence, 31 g ai/ha, scale 0 to 100 (0 no effect, 100 complete control)
SMILES,"Plant response rating: Panicum, Fall ([1]; Preemergence, 16 g ai/ha)","Plant response rating: Panicum, Fall ([1]; Preemergence, 31 g ai/ha)","Plant response rating: Panicum, Fall ([1]; Preemergence, 62 g ai/ha)","Plant response rating: Panicum, Fall ([1]; Preemergence, 125 g ai/ha)",Plant response rating: Cocklebur ([2]; 16 g ai/ha),Plant response rating: Cocklebur ([2]; 31 g ai/ha),Plant response rating: Cocklebur ([2]; 62 g ai/ha),Plant response rating: Cocklebur ([2]; 125 g ai/ha),Plant response rating: Goosegrass ([3]; 16 g ai/ha),Plant response rating: Goosegrass ([3]; 31 g ai/ha),Plant response rating: Goosegrass ([3]; 125 g ai/ha),"Plant response rating: Foxtail, Green ([4]; 16 g ai/ha)","Plant response rating: Foxtail, Green ([4]; 31 g ai/ha)","Plant response rating: Foxtail, Green ([4]; 62 g ai/ha)","Plant response rating: Foxtail, Green ([4]; 125 g ai/ha)","Plant response rating: Nutsedge, Yellow ([5]; 16 g ai/ha)","Plant response rating: Nutsedge, Yellow ([5]; 31 g ai/ha)","Plant response rating: Nutsedge, Yellow ([5]; 62 g ai/ha)","Plant response rating, Oilseed Rape (Oilseed Rape [6])","Plant response rating, Oilseed Rape (Oilseed Rape [7]; [8])",also measured
"Cc1nn(-c2ccc(F)cc2)nc1Cc1ccnc(C(F)(F)F)c1 [Compound 16, 4-[[2-(4-fluorophenyl)-5-methyl-2H-1,2,3-triazol-4-yl]methyl]-2-(trifluoromethyl)pyridine]",70,100,100,100,0,0,0,0,40,98,100,90,90,100,100,0,0,20,,,"Plant response rating: Panicum, Fall ([1]; Preemergence, 8 g ai/ha): 0; Plant response rating: Goosegrass ([3]; 8 g ai/ha): 40; Plant response rating: Goosegrass ([3]; 62 g ai/ha): 100; Plant response rating: Foxtail, Green ([4]; 8 g ai/ha): 60; Plant response rating: Nutsedge, Yellow ([5]; 8 g ai/ha): 0; Plant response rating: Nutsedge, Yellow ([5]; 125 g ai/ha): 20"
"Cc1nn(-c2ccc(C(F)(F)F)cc2)nc1Cc1ccnc(C(F)(F)F)c1 [Compound 47, 4-[[5-methyl-2-[4-(trifluoromethyl)phenyl]-2H-1,2,3-triazol-4-yl]methyl]-2-(trifluoromethyl)pyridine]",100,100,100,100,0,10,20,35,100,100,100,85,100,100,100,0,0,10,,,"Plant response rating: Panicum, Fall ([1]; Postemergence, 250 g ai/ha): 40; Plant response rating: Panicum, Fall ([1]; Postemergence, 16 g ai/ha): 10; Plant response rating: Panicum, Fall ([1]; Postemergence, 31 g ai/ha): 20; Plant response rating: Panicum, Fall ([1]; Postemergence, 62 g ai/ha): 30; Plant response rating: Panicum, Fall ([1]; Postemergence, 125 g ai/ha): 30; Plant response rating: Panicum, Fall ([1]; Preemergence, 250 g ai/ha): 100; Plant response rating: Cocklebur ([2]; 250 g ai/ha): 50; Plant response rating: Goosegrass ([3]; 250 g ai/ha): 100; Plant response rating: Foxtail, Green ([4]; 250 g ai/ha): 100; Plant response rating: Nutsedge, Yellow ([5]; 125 g ai/ha): 10; Plant response rating: Nutsedge, Yellow ([5]; 250 g ai/ha): 35"
"Cc1nn(-c2ccc(F)cc2)nc1Oc1ccnc(C(F)(F)F)c1 [Compound 129, 4-[[2-(4-fluorophenyl)-5-methyl-2H-1,2,3-triazol-4-yl]oxy]-2-(trifluoromethyl)pyridine]",35,98,100,100,0,0,35,35,40,50,100,60,100,100,100,0,0,0,,,"Plant response rating: Panicum, Fall ([1]; Preemergence, 8 g ai/ha): 0; Plant response rating: Cocklebur ([2]; 8 g ai/ha): 0; Plant response rating: Goosegrass ([3]; 8 g ai/ha): 40; Plant response rating: Goosegrass ([3]; 62 g ai/ha): 60; Plant response rating: Foxtail, Green ([4]; 8 g ai/ha): 0; Plant response rating: Nutsedge, Yellow ([5]; 8 g ai/ha): 0; Plant response rating: Nutsedge, Yellow ([5]; 125 g ai/ha): 20"
CCCc1nn(-c2ccc(F)cc2)nc1Cc1ccnc(C(F)(F)F)c1 [Compound 153],,,,,,,,,,,,,,,,,,,98,98,
Cc1nn(-c2ccc(C(F)(F)F)c(F)c2)nc1Cc1ccnc(C(F)(F)F)c1 [Compound 162],,,,,,,,,,,,,,,,,,,100,100,
CCc1nn(-c2ccc(F)cc2)nc1Oc1ccnc(C(F)(F)F)c1 [Compound 166],,,,,,,,,,,,,,,,,,,90,100,"Plant response rating, Oilseed Rape (Oilseed Rape [7]; [9]): 5"
CCCc1nn(-c2ccc(C(F)(F)F)c(F)c2)nc1Oc1ccnc(C(F)(F)F)c1 [Compound 185],,,,,,,,,,,,,,,,,,,100,100,"Plant response rating, Oilseed Rape (Oilseed Rape [7]; [9]): 10"
CCOc1nn(-c2ccc(Br)cc2)nc1Cc1ccnc(C(F)(F)F)c1 [Compound 189],,,,,,,,,,,,,,,,,,,85,,
